Active and inactive are the calls of the source. No cut-off for these calls is given here.
Key:
Mucor = experiment: Antifungal activity against Mucor species assessed as lowest dose level for total inhibition of fungal growth; type: functional
Sporothrix schenckii = experiment: Antifungal activity against Sporothrix schenckii assessed as lowest dose level for total inhibition of fungal growth; type: functional
Trichophyton rubrum = experiment: Antifungal activity against Trichophyton rubrum assessed as lowest dose level for total inhibition of fungal growth; type: functional
[1] = system: Erysipelothrix rhusiopathiae; experiment: Antibacterial activity against Erysipelothrix insidiosa assessed as lowest dose level for total inhibition of bacterial growth; type: functional
Phialophora verrucosa = experiment: Antifungal activity against Phialophora verrucosa assessed as lowest dose level for total inhibition of fungal growth; type: functional
Candida albicans [2] = experiment: Antifungal activity against Candida albicans assessed as lowest dose level for total inhibition of fungal growth; type: functional
Saprolegnia = experiment: Antifungal activity against Saprolegnia species assessed as lowest dose level for total inhibition of fungal growth; type: functional
Microsporum canis = experiment: Antifungal activity against Microsporum canis assessed as lowest dose level for total inhibition of fungal growth; type: functional
[3] = system: Staphylococcus haemolyticus; experiment: Antibacterial activity against Staphylococcus haemolyticus assessed as lowest dose level for total inhibition of bacterial growth; type: functional
Streptococcus pyogenes = experiment: Antibacterial activity against Streptococcus pyogenes assessed as lowest dose level for total inhibition of bacterial growth; type: functional
Cryptococcus neoformans = experiment: Antifungal activity against Cryptococcus neoformans assessed as lowest dose level for total inhibition of fungal growth; type: functional
Candida tropicalis = experiment: Antifungal activity against Candida tropicalis assessed as lowest dose level for total inhibition of fungal growth; type: functional
Candida albicans [4] = experiment: In vivo antifungal activity against Candida albicans topically infected in guinea pig assessed as animal cured at 10 mg/kg, po; type: functional, organism-based; parameters: dose 10 mg/kg
[5] = system: Trichophyton mentagrophytes; experiment: Antifungal activity against Trichophyton mentagrophytes assessed as lowest dose level for total inhibition of fungal growth; type: functional
Aspergillus fumigatus = experiment: Antifungal activity against Aspergillus fumigatus assessed as lowest dose level for total inhibition of fungal growth; type: functional

SMILES	Activity (Mucor)	Activity (Sporothrix schenckii)	Activity (Trichophyton rubrum)	Activity [1]	Activity (Phialophora verrucosa)	Activity (Candida albicans [2])	Activity (Saprolegnia)	Activity (Microsporum canis)	Activity [3]	Activity (Streptococcus pyogenes)	Activity (Cryptococcus neoformans)	Activity (Candida tropicalis)	Activity (Candida albicans [4])	Activity [5]	Activity (Aspergillus fumigatus)
Clc1ccc(CC(Cn2ccnc2)c2ccccc2Br)c(Cl)c1.O=[N+]([O-])O (stereo not given)	10 µg/mL	10 µg/mL	<1 µg/mL	<1 µg/mL	100 µg/mL	10 µg/mL	100 µg/mL	10 µg/mL	<1 µg/mL	10 µg/mL	<1 µg/mL	100 µg/mL	inactive	<1 µg/mL	10 µg/mL
COc1ccc(CC(Cn2ccnc2)c2ccc(Cl)cc2Cl)cc1.O=[N+]([O-])O (stereo not given)	10 µg/mL	10 µg/mL	<1 µg/mL	1 µg/mL	10 µg/mL	10 µg/mL	100 µg/mL	100 µg/mL	10 µg/mL	1 µg/mL	<1 µg/mL	10 µg/mL	inactive	<1 µg/mL	100 µg/mL
Clc1ccc(C(CCc2ccccc2)Cn2ccnc2)c(Cl)c1.O=[N+]([O-])O (stereo not given)	100 µg/mL	10 µg/mL	<1 µg/mL	<1 µg/mL	10 µg/mL	100 µg/mL	10 µg/mL	10 µg/mL	1 µg/mL	<1 µg/mL	<1 µg/mL	>100 µg/mL	inactive	<1 µg/mL	100 µg/mL
Clc1ccc(CC(Cn2ccnc2)c2c(Cl)cccc2Cl)cc1.O=[N+]([O-])O (stereo not given)	>100 µg/mL	100 µg/mL	<1 µg/mL	<1 µg/mL	100 µg/mL	100 µg/mL	100 µg/mL	<1 µg/mL	100 µg/mL	<1 µg/mL	100 µg/mL	>100 µg/mL	inactive	<1 µg/mL	100 µg/mL

From ChEMBL document CHEMBL3271999, “Antimycotic imidazoles. 2. Synthesis and antimycotic properties of 1-[2-(arylalkyl)-2-phenylethyl]-1H-imidazoles” (1977)
